The supplement of paper PMC13380429

Experiments:
Details in all cases: 72 h
Vero E6 [1] = experiment: drug sensitivity score (DSS) for viability; higher = more toxic; extreme values may be limits of the assay
U2OS [2] = experiment: as above
HepG2 [3] = experiment: as above
Calu-3 [4] = experiment: as above
Caco-2 [5] = experiment: as above
Vero E6 [6] = experiment: relative viability EC50 (midpoint between 100% and the lowest measured viability); higher = less toxic
U2OS [7] = experiment: as above
HepG2 [8] = experiment: as above
Calu-3 [9] = experiment: as above
Caco-2 [10] = experiment: as above
Vero E6 [11] = experiment: cell viability relative to DMSO; higher = less toxic
U2OS [12] = experiment: as above
HepG2 [13] = experiment: as above
Calu-3 [14] = experiment: as above
Caco-2 [15] = experiment: as above

Compound `COc1ccc(-c2ccc3c(N4CCOC[C@@H]4C)nc(N4CCOC[C@@H]4C)nc3n2)cc1CO` [AZD8055] has a drug sensitivity score (Vero E6 [1]) of 15, a drug sensitivity score (U2OS [2]) of 20 and a drug sensitivity score (HepG2 [3]) of 19.7. For the same compound, the drug sensitivity score (Calu-3 [4]) was 23, the drug sensitivity score (Caco-2 [5]) was 18.8 and the “relative viability EC50” value (Vero E6 [6]) was 123 nM. The “relative viability EC50” value (U2OS [7]) was 101 nM, the “relative viability EC50” value (HepG2 [8]) was 80.8 nM and the “relative viability EC50” value (Calu-3 [9]) was 26.5 nM. The “relative viability EC50” value (Caco-2 [10]) was 54.5 nM, the cell viability (Vero E6 [11]; 1 nM) was 96.9% and the cell viability (Vero E6 [11]; 10 nM) was 89.7%. It also gave a cell viability (Vero E6 [11]; 100 nM) of 69.9%, a cell viability (Vero E6 [11]; 1000 nM) of 40.1% and a cell viability (Vero E6 [11]; 10000 nM) of 30.3%. For the same compound, the cell viability (U2OS [12]; 1 nM) was 99%, the cell viability (U2OS [12]; 10 nM) was 102% and the cell viability (U2OS [12]; 100 nM) was 57.5%. It also gave a cell viability (U2OS [12]; 1000 nM) of 22.8%, a cell viability (U2OS [12]; 10000 nM) of 16.1% and a cell viability (HepG2 [13]; 1 nM) of 99.4%. It also gave a cell viability (HepG2 [13]; 10 nM) of 90.8%, a cell viability (HepG2 [13]; 100 nM) of 54.7% and a cell viability (HepG2 [13]; 1000 nM) of 27.1%. It also gave a cell viability (HepG2 [13]; 10000 nM) of 18.9%, a cell viability (Calu-3 [14]; 1 nM) of 101% and a cell viability (Calu-3 [14]; 10 nM) of 83.7%. It also gave a cell viability (Calu-3 [14]; 100 nM) of 37.6%, a cell viability (Calu-3 [14]; 1000 nM) of 26.4% and a cell viability (Calu-3 [14]; 10000 nM) of 27.2%. It also gave a cell viability (Caco-2 [15]; 1 nM) of 94.3%, a cell viability (Caco-2 [15]; 10 nM) of 88.2% and a cell viability (Caco-2 [15]; 100 nM) of 54%. It also gave a cell viability (Caco-2 [15]; 1000 nM) of 34.6% and a cell viability (Caco-2 [15]; 10000 nM) of 28.2%.
Work on `CC1(C)Cc2c(-c3ccccc3)c(-c3ccc(Cl)cc3)c(CC(=O)O)n2C1` [licofelone] yielded a drug sensitivity score (Vero E6 [1]) of 0, a drug sensitivity score (U2OS [2]) of 0 and a drug sensitivity score (HepG2 [3]) of 0. For the same compound, the drug sensitivity score (Calu-3 [4]) was 0, the drug sensitivity score (Caco-2 [5]) was 0.1 and the “relative viability EC50” value (Vero E6 [6]) was > 10000 nM. For the same compound, the “relative viability EC50” value (U2OS [7]) was > 10000 nM, the “relative viability EC50” value (HepG2 [8]) was > 10000 nM and the “relative viability EC50” value (Calu-3 [9]) was > 10000 nM. The “relative viability EC50” value (Caco-2 [10]) was > 10000 nM, the cell viability (Vero E6 [11]; 1 nM) was 102% and the cell viability (Vero E6 [11]; 10 nM) was 102%. For the same compound, the cell viability (Vero E6 [11]; 100 nM) was 102%, the cell viability (Vero E6 [11]; 1000 nM) was 107% and the cell viability (Vero E6 [11]; 10000 nM) was 99.5%. The cell viability (U2OS [12]; 1 nM) was 101%, the cell viability (U2OS [12]; 10 nM) was 101% and the cell viability (U2OS [12]; 100 nM) was 97.5%. The cell viability (U2OS [12]; 1000 nM) was 102%, the cell viability (U2OS [12]; 10000 nM) was 90.9% and the cell viability (HepG2 [13]; 1 nM) was 110%. The cell viability (HepG2 [13]; 10 nM) was 102%, the cell viability (HepG2 [13]; 100 nM) was 95.4% and the cell viability (HepG2 [13]; 1000 nM) was 101%. For the same compound, the cell viability (HepG2 [13]; 10000 nM) was 93.1%, the cell viability (Calu-3 [14]; 1 nM) was 104% and the cell viability (Calu-3 [14]; 10 nM) was 101%. It also gave a cell viability (Calu-3 [14]; 100 nM) of 100%, a cell viability (Calu-3 [14]; 1000 nM) of 96% and a cell viability (Calu-3 [14]; 10000 nM) of 95%. The cell viability (Caco-2 [15]; 1 nM) was 94.8%, the cell viability (Caco-2 [15]; 10 nM) was 94.9% and the cell viability (Caco-2 [15]; 100 nM) was 87.5%. For the same compound, the cell viability (Caco-2 [15]; 1000 nM) was 96.9% and the cell viability (Caco-2 [15]; 10000 nM) was 85.3%.
Work on `CC(C)(C)c1[nH]cnc1/C=c1\[nH]c(=O)/c(=C/c2ccccc2)[nH]c1=O` [plinabulin] yielded a drug sensitivity score (Vero E6 [1]) of 23.9, a drug sensitivity score (U2OS [2]) of 21.3 and a drug sensitivity score (HepG2 [3]) of 19.7. For the same compound, the drug sensitivity score (Calu-3 [4]) was 17.3, the drug sensitivity score (Caco-2 [5]) was 13.1 and the “relative viability EC50” value (Vero E6 [6]) was 63.3 nM. The “relative viability EC50” value (U2OS [7]) was 59.1 nM, the “relative viability EC50” value (HepG2 [8]) was 66.8 nM and the “relative viability EC50” value (Calu-3 [9]) was 46.5 nM. For the same compound, the “relative viability EC50” value (Caco-2 [10]) was 123 nM, the cell viability (Vero E6 [11]; 1 nM) was 106% and the cell viability (Vero E6 [11]; 10 nM) was 101%. It also gave a cell viability (Vero E6 [11]; 100 nM) of 32.7%, a cell viability (Vero E6 [11]; 1000 nM) of 11.7% and a cell viability (Vero E6 [11]; 10000 nM) of 11.4%. It also gave a cell viability (U2OS [12]; 1 nM) of 101%, a cell viability (U2OS [12]; 10 nM) of 94.9% and a cell viability (U2OS [12]; 100 nM) of 45.3%. For the same compound, the cell viability (U2OS [12]; 1000 nM) was 22.3%, the cell viability (U2OS [12]; 10000 nM) was 20.6% and the cell viability (HepG2 [13]; 1 nM) was 108%. It also gave a cell viability (HepG2 [13]; 10 nM) of 97.1%, a cell viability (HepG2 [13]; 100 nM) of 50.1% and a cell viability (HepG2 [13]; 1000 nM) of 25.5%. The cell viability (HepG2 [13]; 10000 nM) was 30.9%, the cell viability (Calu-3 [14]; 1 nM) was 102% and the cell viability (Calu-3 [14]; 10 nM) was 87.9%. For the same compound, the cell viability (Calu-3 [14]; 100 nM) was 56.8%, the cell viability (Calu-3 [14]; 1000 nM) was 40.7% and the cell viability (Calu-3 [14]; 10000 nM) was 36.6%. For the same compound, the cell viability (Caco-2 [15]; 1 nM) was 107%, the cell viability (Caco-2 [15]; 10 nM) was 89.1% and the cell viability (Caco-2 [15]; 100 nM) was 68.6%. For the same compound, the cell viability (Caco-2 [15]; 1000 nM) was 53.5% and the cell viability (Caco-2 [15]; 10000 nM) was 37.6%.
With `CC[C@@]1(O)C(=O)OCc2c1cc1n(c2=O)Cc2cc3ccccc3nc2-1` [camptothecin] the drug sensitivity score (Vero E6 [1]) was 15.9, the drug sensitivity score (U2OS [2]) was 11.3 and the drug sensitivity score (HepG2 [3]) was 28.8. For the same compound, the drug sensitivity score (Calu-3 [4]) was 17.1, the drug sensitivity score (Caco-2 [5]) was 21.3 and the “relative viability EC50” value (Vero E6 [6]) was 324 nM. For the same compound, the “relative viability EC50” value (U2OS [7]) was 891 nM, the “relative viability EC50” value (HepG2 [8]) was 27 nM and the “relative viability EC50” value (Calu-3 [9]) was 159 nM. The “relative viability EC50” value (Caco-2 [10]) was 93.9 nM, the cell viability (Vero E6 [11]; 1 nM) was 94.9% and the cell viability (Vero E6 [11]; 10 nM) was 96.4%. It also gave a cell viability (Vero E6 [11]; 100 nM) of 68.7%, a cell viability (Vero E6 [11]; 1000 nM) of 37.4% and a cell viability (Vero E6 [11]; 10000 nM) of 4%. For the same compound, the cell viability (U2OS [12]; 1 nM) was 95.8%, the cell viability (U2OS [12]; 10 nM) was 101% and the cell viability (U2OS [12]; 100 nM) was 86.5%. For the same compound, the cell viability (U2OS [12]; 1000 nM) was 52%, the cell viability (U2OS [12]; 10000 nM) was 3.7% and the cell viability (HepG2 [13]; 1 nM) was 87.8%. It also gave a cell viability (HepG2 [13]; 10 nM) of 63.4%, a cell viability (HepG2 [13]; 100 nM) of 36.7% and a cell viability (HepG2 [13]; 1000 nM) of 6%. The cell viability (HepG2 [13]; 10000 nM) was 1.4%, the cell viability (Calu-3 [14]; 1 nM) was 97.9% and the cell viability (Calu-3 [14]; 10 nM) was 88.4%. The cell viability (Calu-3 [14]; 100 nM) was 59.8%, the cell viability (Calu-3 [14]; 1000 nM) was 40.4% and the cell viability (Calu-3 [14]; 10000 nM) was 14.2%. For the same compound, the cell viability (Caco-2 [15]; 1 nM) was 100%, the cell viability (Caco-2 [15]; 10 nM) was 87.6% and the cell viability (Caco-2 [15]; 100 nM) was 56.4%. The cell viability (Caco-2 [15]; 1000 nM) was 9.4% and the cell viability (Caco-2 [15]; 10000 nM) was 25.5%.
`CC(=O)[C@@]1(O)CC[C@H]2[C@@H]3C[C@H](C)C4=CC(=O)C=C[C@]4(C)[C@@]3(F)[C@@H](O)C[C@@]21C` [fluorometholone] gave a drug sensitivity score (Vero E6 [1]) of 0, a drug sensitivity score (U2OS [2]) of 0 and a drug sensitivity score (HepG2 [3]) of 0. For the same compound, the drug sensitivity score (Calu-3 [4]) was 0, the drug sensitivity score (Caco-2 [5]) was 0 and the “relative viability EC50” value (Vero E6 [6]) was > 10000 nM. The “relative viability EC50” value (U2OS [7]) was > 10000 nM, the “relative viability EC50” value (HepG2 [8]) was > 10000 nM and the “relative viability EC50” value (Calu-3 [9]) was > 10000 nM. For the same compound, the “relative viability EC50” value (Caco-2 [10]) was > 10000 nM, the cell viability (Vero E6 [11]; 1 nM) was 105% and the cell viability (Vero E6 [11]; 10 nM) was 101%. The cell viability (Vero E6 [11]; 100 nM) was 102%, the cell viability (Vero E6 [11]; 1000 nM) was 97.5% and the cell viability (Vero E6 [11]; 10000 nM) was 101%. The cell viability (U2OS [12]; 1 nM) was 96.4%, the cell viability (U2OS [12]; 10 nM) was 97.9% and the cell viability (U2OS [12]; 100 nM) was 91.1%. For the same compound, the cell viability (U2OS [12]; 1000 nM) was 97%, the cell viability (U2OS [12]; 10000 nM) was 92.3% and the cell viability (HepG2 [13]; 1 nM) was 96.3%. The cell viability (HepG2 [13]; 10 nM) was 96.7%, the cell viability (HepG2 [13]; 100 nM) was 101% and the cell viability (HepG2 [13]; 1000 nM) was 90.8%. The cell viability (HepG2 [13]; 10000 nM) was 96.9%, the cell viability (Calu-3 [14]; 1 nM) was 93.2% and the cell viability (Calu-3 [14]; 10 nM) was 98.3%. It also gave a cell viability (Calu-3 [14]; 100 nM) of 94.1%, a cell viability (Calu-3 [14]; 1000 nM) of 92.5% and a cell viability (Calu-3 [14]; 10000 nM) of 87.9%. The cell viability (Caco-2 [15]; 1 nM) was 94.1%, the cell viability (Caco-2 [15]; 10 nM) was 96.2% and the cell viability (Caco-2 [15]; 100 nM) was 96.4%. For the same compound, the cell viability (Caco-2 [15]; 1000 nM) was 99.7% and the cell viability (Caco-2 [15]; 10000 nM) was 124%.
